The target in assay [1] is T1, PARG (Homo sapiens, UniProt Q86W56). In words: Inhibition of PARG cellular assay (PAR foci in HeLa cells after MMS). As to conditions: compound 1 h then MMS 1 h. Set-up: endogenous in cells; host or cells: HeLa. Type of assay: cell-based. On the procedure:
The ability of the compounds disclosed herein to inhibit PARG was determined as described below. Briefly, after treating HeLa cells with the compounds of the disclosure for 1 h, followed by treatment with DNA alkylating agent methylmethanesulfonate (MMS) for an additional 1 h, the cells were fixed in 3.7% formaldehyde. The cells were permeabilized in 0.5% Triton-X100, blocked in 5% goat serum, and incubated with mouse monoclonal antibody against poly (ADP) ribose (PAR) polymer overnight at 4° C. The cells were washed and incubated with an Alexafluor 488-linked secondary antibody together with a nuclear stain (Hoechst 33342) for an hour at room temperature. After washing, images of the cells were captured and analyzed on a high content imaging microscope and software. Two measurement of PAR chain were quantified with the mean intensity over background of the nuclear foci (fluorescent signal at 488 nm range 0.3-2.0 μm foci) quantified as PAR foci (PAR Foci IC50). The cells with a PAR foci signal >1.3 was considered as positive (PAR % positive IC50), and the percentage positive cells are quantified.

The target in assay [2] is T1, PARG. In words: Inhibition of PARG enzymatic assay (TR-FRET enzymatic IC50 assay). Type of assay: biochemical. Set-up: purchased Peak Proteins. As to conditions: hPARG 250 pM, biotinylated-PARylated PARP substrate 30 nM. The method, then: PARG enzyme was incubated with compound or vehicle (DMSO) and the biotinylated-PARylated PARP substrate in a microtiter plate. After adding detection antibody and streptavidin-europium, and then incubating, the plate was read for fluorescence intensity. The low control (DMSO) with low fluorescence intensity represents no inhibition of enzymatic reaction while the high control (no enzyme) with high fluorescence intensity represents full inhibition of enzymatic reaction.
• PARG • hPARG: 250 pM, His-tagged, Peak Proteins, 0.96 mg/mL (8.58 μM) • Substrate: 30 nM • Reaction time: 70 minutes • Substrate: hPARP1, His- and TEV-tagged, Peak Proteins, 14 μM • Detection Antibody: anti-His monoclonal antibody-ULight, Perkin Elmer catalog #TRF0105-M • Streptavidin-Europium: Perkin Elmer catalog #AD0062 • Assay buffer: 50 mM Tris-HCl pH 7.4, 50 mM KCl, 3 mM EDTA, 0.4 mM EGTA, 1 mM DTT, 0.01% Tween 20, 0.01% BSA • Temperature: 23° C. • Total volume: 20 μL
• 0% inhibition control: DMSO • 100% inhibition control: No enzyme
• 1. Transfer 5 μL of 3× final concentration of test compounds or DMSO to the appropriate wells of a microtiter plate. • 2. Centrifuge the plate at 1000 rpm for 1 minute. • 3. Transfer 5 μL of 3× final concentration of enzyme in assay buffer or assay buffer alone to the appropriate wells. • 4. Centrifuge the plate at 1000 rpm for 1 minute. • 5. Incubate the plate at room temperature for 1 hour. • 6. Transfer 5 μL of 3× substrate in assay buffer to all the test wells. • 7. Centrifuge the plate at 1000 rpm for 1 minute. • 8. Incubate the plate at room temperature for 10 minutes. • 9. Transfer 5 μL of 3× mixture of detection antibody and streptavidin-europium in assay buffer to all the test wells. • 10. Centrifuge the plate at 1000 rpm for 1 minute. • 11. Incubate the plate at room temperature for 1 hour. • 12. Read the plate on a plate reader (e.g., Infinite M1000).
In general terms: TR-FRET usually uses a lanthanide donor and a delayed reading to cut background.

T1 sequence (Q86W56 whole entry): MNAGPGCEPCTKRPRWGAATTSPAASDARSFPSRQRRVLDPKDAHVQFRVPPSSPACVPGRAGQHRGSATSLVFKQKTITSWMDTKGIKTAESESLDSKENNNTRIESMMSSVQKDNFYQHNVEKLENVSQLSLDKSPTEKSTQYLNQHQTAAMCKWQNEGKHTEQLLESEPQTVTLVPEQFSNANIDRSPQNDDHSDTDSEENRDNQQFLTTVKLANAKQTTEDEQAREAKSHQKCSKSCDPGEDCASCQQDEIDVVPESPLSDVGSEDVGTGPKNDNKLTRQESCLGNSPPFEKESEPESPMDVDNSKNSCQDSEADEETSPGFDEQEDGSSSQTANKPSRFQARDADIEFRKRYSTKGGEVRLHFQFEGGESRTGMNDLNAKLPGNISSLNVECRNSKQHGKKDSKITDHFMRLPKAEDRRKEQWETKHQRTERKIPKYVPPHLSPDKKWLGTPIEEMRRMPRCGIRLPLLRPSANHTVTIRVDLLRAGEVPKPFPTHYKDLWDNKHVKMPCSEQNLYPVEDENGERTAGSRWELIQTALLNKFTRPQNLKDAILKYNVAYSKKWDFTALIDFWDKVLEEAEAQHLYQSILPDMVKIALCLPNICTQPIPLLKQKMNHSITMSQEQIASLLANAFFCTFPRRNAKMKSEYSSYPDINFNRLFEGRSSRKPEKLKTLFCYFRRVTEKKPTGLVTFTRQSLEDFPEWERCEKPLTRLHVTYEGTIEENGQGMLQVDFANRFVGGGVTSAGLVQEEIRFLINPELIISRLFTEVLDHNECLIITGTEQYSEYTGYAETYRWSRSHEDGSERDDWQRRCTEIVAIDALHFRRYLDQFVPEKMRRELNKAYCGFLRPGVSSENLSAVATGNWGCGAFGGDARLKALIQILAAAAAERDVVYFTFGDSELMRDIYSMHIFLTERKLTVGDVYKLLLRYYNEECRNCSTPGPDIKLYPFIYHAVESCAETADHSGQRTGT

As a reminder, the IC50 is the midpoint of a concentration-inhibition curve. A low value points to higher potency. On to `N#CC1(NS(=O)(=O)c2cc(-c3c[nH]cn3)c3cnn(-c4nnc(C(F)F)s4)c3c2)CC1` [Example 9, 1-[({1-[5-(difluoromethyl)(1,3,4-thiadiazol-2-yl)]-4-imidazol-4-yl-1H-indazol-6-yl}sulfonyl)amino]cyclopropanecarbonitrile], for which the IC50 at PARG [1] lay within 1000 to 10000 nM; against PARG [2], 300 to 1000 nM. The like results for `N#CC1(NS(=O)(=O)c2cc(-c3ccnnc3)c3cnn(-c4nnc(C(F)F)s4)c3c2)CC1` [Example 10, 1-[({1-[5-(difluoromethyl)(1,3,4-thiadiazol-2-yl)]-4-pyridazin-4-yl-1H-indazol-6-yl}sulfonyl)amino]cyclopropanecarbonitrile] were, in that order, 1000 to 10000 nM and 100 to 300 nM. The corresponding values for `N#CC1(NS(=O)(=O)c2cc(-c3cccnn3)c3cnn(-c4nnc(C(F)F)s4)c3c2)CC1` [Example 11, 1-[({1-[5-(difluoromethyl)(1,3,4-thiadiazol-2-yl)]-4-pyridazin-3-yl-1H-indazol-6-yl}sulfonyl)amino]cyclopropanecarbonitrile] are 1000 to 10000 nM and 100 to 300 nM.

As for `Cn1cnc(-c2cc(S(=O)(=O)NC3(C#N)CC3)cc3c2cnn3-c2nnc(C(F)F)s2)c1` [Example 12, 1-[({1-[5-(difluoromethyl)(1,3,4-thiadiazol-2-yl)]-4-(1-methylimidazol-4-yl)-1H-indazol-6-yl}sulfonyl)amino]cyclopropanecarbonitrile], the IC50 against PARG [1] and at PARG [2] was 300 to 1000 nM in each case. As for `N#CC1(NS(=O)(=O)c2cc(-c3cscn3)c3cnn(-c4nnc(C(F)F)s4)c3c2)CC1` [Example 13, 1-[({1-[5-(difluoromethyl)(1,3,4-thiadiazol-2-yl)]-4-(1,3-thiazol-4-yl)-1H-indazol-6-yl}sulfonyl)amino]cyclopropanecarbonitrile], the IC50 at PARG [1] and against PARG [2] was 300 to 1000 nM each time.

Turning to `N#CC1(NS(=O)(=O)c2cc(-c3ccncc3)c3cnn(-c4nnc(C(F)F)s4)c3c2)CC1` [Example 16, 1-[({1-[5-(difluoromethyl)(1,3,4-thiadiazol-2-yl)]-4-(4-pyridyl)-1H-indazol-6-yl}sulfonyl)amino]cyclopropanecarbonitrile], the half-maximal inhibitory concentration (IC50) against PARG [1] was 1000 to 10000 nM; against PARG [2], 100 to 300 nM. The like results for `N#CC1(NS(=O)(=O)c2cc(-c3cccnc3)c3cnn(-c4nnc(C(F)F)s4)c3c2)CC1` [Example 17, 1-[({1-[5-(difluoromethyl)(1,3,4-thiadiazol-2-yl)]-4-(3-pyridyl)-1H-indazol-6-yl}sulfonyl)amino]cyclopropanecarbonitrile] were, in that order, 1000 to 10000 nM and 300 to 1000 nM. As to `N#CC1(NS(=O)(=O)c2cc(-c3cnccn3)c3cnn(-c4nnc(C(F)F)s4)c3c2)CC1` [Example 18, 1-[({1-[5-(difluoromethyl)(1,3,4-thiadiazol-2-yl)]-4-pyrazin-2-yl-1H-indazol-6-yl}sulfonyl)amino]cyclopropanecarbonitrile], the IC50 lay in the range of 1000 to 10000 nM at PARG [1] and 100 to 300 nM against PARG [2].

Regarding `COc1cc(-c2cc(S(=O)(=O)NC3(C(N)=O)CC3)cc3c2cnn3-c2nnc(C(F)F)s2)ncn1` [Example 19, 1-[({1-[5-(difluoromethyl)(1,3,4-thiadiazol-2-yl)]-4-(6-methoxypyrimidin-4-yl)-1H-indazol-6-yl}sulfonyl)amino]cyclopropanecarboxamide], the IC50 against PARG [1] is 1000 to 10000 nM; on PARG [2], 300 to 1000 nM. Consider `COc1nccc(-c2cc(S(=O)(=O)NC3(C(N)=O)CC3)cc3c2cnn3-c2nnc(C(F)F)s2)n1` [Example 20, 1-[({1-[5-(difluoromethyl)(1,3,4-thiadiazol-2-yl)]-4-(2-methoxypyrimidin-4-yl)-1H-indazol-6-yl}sulfonyl)amino]cyclopropanecarboxamide], for which the IC50 against PARG [1] was in the range of 1000 to 10000 nM; against PARG [2] it was 300 to 1000 nM.

Compound `COc1cc(-c2cc(S(=O)(=O)NC3(C#N)CC3)cc3c2cnn3-c2nnc(C(F)F)s2)ncn1` [Example 22, 1-[({1-[5-(difluoromethyl)(1,3,4-thiadiazol-2-yl)]-4-(6-methoxypyrimidin-4-yl)-1H-indazol-6-yl}sulfonyl)amino]cyclopropanecarbonitrile] showed an IC50 at PARG [1] of 300 to 1000 nM. For `N#CC1(NS(=O)(=O)c2cc(N3CCC4(CCOC4)CC3)c3cnn(-c4nnc(C(F)F)s4)c3c2)CC1` [Example 29, 1-[({1-[5-(difluoromethyl)(1,3,4-thiadiazol-2-yl)]-4-(2-oxa-8-azaspiro[4.5]dec-8-yl)-1H-indazol-6-yl}sulfonyl)amino]cyclopropanecarbonitrile], the values for the IC50 against PARG [1] and at PARG [2] were 300 to 1000 nM and 100 to 300 nM, respectively. As for `N#CC1(NS(=O)(=O)c2cc(N3CCC4(CCOCC4)CC3)c3cnn(-c4nnc(C(F)F)s4)c3c2)CC1` [Example 30, 1-[({1-[5-(difluoromethyl)(1,3,4-thiadiazol-2-yl)]-4-(9-oxa-3-azaspiro[5.5]undec-3-yl)-1H-indazol-6-yl}sulfonyl)amino]cyclopropanecarbonitrile], the results for the IC50 against PARG [1] and against PARG [2] were 1000 to 10000 nM and 300 to 1000 nM, respectively. In turn, `N#CC1(NS(=O)(=O)c2cc(N3CCCOCC3)c3cnn(-c4nnc(C(F)F)s4)c3c2)CC1` [Example 42, 1-[({1-[5-(difluoromethyl)(1,3,4-thiadiazol-2-yl)]-4-(1,4-oxazaperhydroepin-4-yl)-1H-indazol-6-yl}sulfonyl)amino]cyclopropanecarbonitrile] displayed an IC50 at PARG [2] of 1000 to 10000 nM. `CN(C)C(=O)C1CN(c2cc(S(=O)(=O)NC3(C#N)CC3)cc3c2cnn3-c2nnc(C(F)F)s2)C1` [Example 55, [1-(1-[5-(difluoromethyl)(1,3,4-thiadiazol-2-yl)]-6-{[(cyanocyclopropyl)amino]sulfonyl}(1H-indazol-4-yl))azetidin-3-yl]-N,N-dimethylcarboxamide] showed an IC50 against PARG [2] of 300 to 1000 nM. On the same count and under the same terms, the value for `N#CC1(NS(=O)(=O)c2cc(N3CCN4C(=O)OC[C@@H]4C3)c3cnn(-c4nnc(C(F)F)s4)c3c2)CC1` [Example 62, 1-[({4-((1S)-7-oxo-8-oxa-3,6-diazabicyclo[4.3.0]non-3-yl)-1-[5-(difluoromethyl) (1,3,4-thiadiazol-2-yl)]-1H-indazol-6-yl}sulfonyl)amino]cyclopropanecarbonitrile] was ≤ 100 nM; that for `N#CC1(NS(=O)(=O)c2cc(N3CCCC4(COC4)C3)c3cnn(-c4nnc(C(F)F)s4)c3c2)CC1` [Example 65, 1-[({1-[5-(difluoromethyl)(1,3,4-thiadiazol-2-yl)]-4-(2-oxa-6-azaspiro[3.5]non-6-yl)-1H-indazol-6-yl}sulfonyl)amino]cyclopropanecarbonitrile] was 300 to 1000 nM; that for `N#CC1(NS(=O)(=O)c2cc(N3CC4COCC(C3)N4)c3cnn(-c4nnc(C(F)F)s4)c3c2)CC1` [Example 70, 1-[({1-[5-(difluoromethyl)(1,3,4-thiadiazol-2-yl)]-4-(7-oxa-3,9-diazabicyclo-[3.3.1]non-3-yl)-1H-indazol-6-yl}sulfonyl)amino]cyclopropanecarbonitrile] was 100 to 300 nM. As to `CN1Cc2cn(-c3cc(S(=O)(=O)NC4(C#N)CC4)cc4c3cnn4-c3nnc(C(F)F)s3)nc2C1` [Example 73, 1-[({1-[5-(difluoromethyl)(1,3,4-thiadiazol-2-yl)]-4-(5-methyl(3-pyrrolino[3,4-c]pyrazol-2-yl))-1H-indazol-6-yl}sulfonyl)amino]cyclopropanecarbonitrile], the IC50 is 1000 to 10000 nM against PARG [1] and 100 to 300 nM at PARG [2]. Turning to `CN(C)C(=O)N1CCCN(c2cc(S(=O)(=O)NC3(C#N)CC3)cc3c2cnn3-c2nnc(C(F)F)s2)CC1` [Example 78, [4-(1-[5-(difluoromethyl)(1,3,4-thiadiazol-2-yl)]-6-{[(cyanocyclopropyl)amino]-sulfonyl}(1H-indazol-4-yl))(1,4-diazaperhydroepinyl)]-N,N-dimethylcarboxamide], the IC50 against PARG [2] was in the range of 100 to 300 nM.

The values above are taken from patent publication US20220389003A1, “4-SUBSTITUTED INDOLE AND INDAZOLE SULFONAMIDO DERIVATIVES AS PARG INHIBITORS” (IDEAYA BIOSCIENCES, INC., priority 2019, published 2022).
